Test results as given in ChEMBL document CHEMBL1201862, “PubChem BioAssay data set” (2004).
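Protocol summary: plate cells (96-well), add compound at 5 concentrations, incubate 48 h, interpolate endpoints linearly. Here, GI50 denotes the concentration required for 50% inhibition of growth.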 Calls of active or inactive are those of the source. Rule as the data show it: active = GI50 up to about 1.1 µM and inactive = higher.

Columns and labels:
Experiment in all cases: inhibition of tumour cell growth, NCI panel, 48 h
[1] = system: 786-0
[2] = system: A498
[3] = system: A549
[4] = system: ACHN
[5] = system: CAKI-1
[6] = system: CCRF-CEM
[7] = system: COLO 205
[8] = system: DLD-1
[9] = system: DMS-114
[10] = system: DMS-273
[11] = system: EKVX
[12] = system: HCC 2998
[13] = system: HCT-116
[14] = system: HCT-15
[15] = system: HL-60
[16] = system: HOP-18
[17] = system: HOP-62
[18] = system: HOP-92
[19] = system: HT-29
[20] = system: IGROV-1
[21] = system: K562
[22] = system: KM-20L2
[23] = system: KM12
[24] = system: LOX IMVI
[25] = system: LXFL 529
[26] = system: M14
[27] = system: M19-MEL
[28] = system: MOLT-4
[29] = system: Malme-3M
[30] = system: NCI-H226
[31] = system: NCI-H23
[32] = system: NCI-H460
[33] = system: NCI-H522
[34] = system: OVCAR-3
[35] = system: OVCAR-4
[36] = system: OVCAR-5
[37] = system: OVCAR-8
[38] = system: RPMI-8226
[39] = system: RXF 393
[40] = system: RXF 631
[41] = system: SF-268
[42] = system: SF-295
[43] = system: SF-539
[44] = system: SK-MEL-28
[45] = system: SK-MEL-2
[46] = system: SK-MEL-5
[47] = system: SK-OV-3
[48] = system: SN12C
[49] = system: SNB-19
[50] = system: SNB-75
[51] = system: SNB-78
[52] = system: SR
[53] = system: SW-620
[54] = system: TK-10
[55] = system: U-251
[56] = system: UACC-257
[57] = system: UACC-62
[58] = system: UO-31
[59] = system: XF498

COc1cccc(-c2cc(O)c3cc4c(cc3n2)OCO4)c1
GI50 [1]: 0.107 µM (active) | GI50 [2]: 0.069 µM (active) | GI50 [3]: 0.313 µM (active) | GI50 [4]: 0.183 µM (active) | GI50 [5]: 0.0339 µM (active) | GI50 [6]: 0.0757 µM (active) | GI50 [7]: 0.132 µM (active) | GI50 [8]: 0.126 µM (active) | GI50 [9]: 0.232 µM (active) | GI50 [10]: 0.147 µM (active) | GI50 [11]: 2.59 µM (inactive) | GI50 [12]: 0.182 µM (active) | GI50 [13]: 0.0902 µM (active) | GI50 [14]: 0.118 µM | GI50 [15]: 0.0605 µM (active) | GI50 [16]: 0.638 µM (active) | GI50 [17]: 0.116 µM (active) | GI50 [18]: 18 µM (inactive) | GI50 [19]: 0.144 µM (active) | GI50 [20]: 0.366 µM (active) | GI50 [21]: 0.0446 µM (active) | GI50 [22]: 0.19 µM (active) | GI50 [23]: 0.0502 µM (active) | GI50 [24]: 0.0857 µM (active) | GI50 [25]: 0.0598 µM (active) | GI50 [26]: 0.0463 µM (active) | GI50 [27]: 0.128 µM (active) | GI50 [28]: 0.139 µM (active) | GI50 [29]: 0.0488 µM (active) | GI50 [30]: 0.198 µM (active) | GI50 [31]: 0.287 µM (active) | GI50 [32]: 0.142 µM (active) | GI50 [33]: 0.0238 µM (active) | GI50 [34]: 0.038 µM (active) | GI50 [35]: 0.938 µM (active) | GI50 [36]: 0.251 µM (active) | GI50 [37]: 0.22 µM (active) | GI50 [38]: 0.492 µM (active) | GI50 [39]: 0.0452 µM (active) | GI50 [40]: 0.442 µM (active) | GI50 [41]: 0.731 µM (active) | GI50 [42]: 0.0818 µM (active) | GI50 [43]: 0.0603 µM (active) | GI50 [44]: > 53.1 µM (inactive) | GI50 [45]: 0.057 µM (active) | GI50 [46]: 0.0352 µM (active) | GI50 [47]: 0.0374 µM (active) | GI50 [48]: 0.294 µM (active) | GI50 [49]: 0.109 µM (active) | GI50 [50]: 0.0424 µM (active) | GI50 [51]: 0.195 µM (active) | GI50 [52]: 0.169 µM (active) | GI50 [53]: 0.034 µM (active) | GI50 [54]: 0.662 µM (active) | GI50 [55]: 0.121 µM (active) | GI50 [56]: 0.0452 µM (active) | GI50 [57]: 0.0531 µM (active) | GI50 [58]: 0.182 µM (active) | GI50 [59]: 0.042 µM (active)

COc1ccc2cc3n(c2c1)CCc1cc(OC)c(OC)cc1-3
GI50 [1]: > 100 µM (inactive) | GI50 [2]: 28.4 µM (inactive) | GI50 [3]: > 100 µM (inactive) | GI50 [4]: > 100 µM (inactive) | GI50 [5]: > 100 µM (inactive) | GI50 [6]: > 100 µM (inactive) | GI50 [7]: > 100 µM (inactive) | GI50 [8]: > 100 µM (inactive) | GI50 [9]: > 100 µM (inactive) | GI50 [10]: > 100 µM (inactive) | GI50 [11]: > 100 µM (inactive) | GI50 [12]: > 100 µM (inactive) | GI50 [15]: > 100 µM (inactive) | GI50 [16]: > 100 µM (inactive) | GI50 [17]: > 100 µM (inactive) | GI50 [18]: > 100 µM (inactive) | GI50 [19]: > 100 µM (inactive) | GI50 [20]: > 100 µM (inactive) | GI50 [21]: > 100 µM (inactive) | GI50 [22]: > 100 µM (inactive) | GI50 [23]: > 100 µM (inactive) | GI50 [24]: > 100 µM (inactive) | GI50 [25]: > 100 µM (inactive) | GI50 [27]: > 100 µM (inactive) | GI50 [28]: > 100 µM (inactive) | GI50 [30]: > 100 µM (inactive) | GI50 [31]: > 100 µM (inactive) | GI50 [32]: > 100 µM (inactive) | GI50 [33]: > 100 µM (inactive) | GI50 [35]: 45.9 µM (inactive) | GI50 [37]: > 100 µM (inactive) | GI50 [39]: > 100 µM (inactive) | GI50 [40]: > 100 µM (inactive) | GI50 [41]: > 100 µM (inactive) | GI50 [42]: 51.2 µM (inactive) | GI50 [43]: > 100 µM (inactive) | GI50 [44]: > 100 µM (inactive) | GI50 [45]: > 100 µM (inactive) | GI50 [47]: > 100 µM (inactive) | GI50 [48]: > 100 µM (inactive) | GI50 [49]: > 100 µM (inactive) | GI50 [51]: > 100 µM (inactive) | GI50 [53]: > 100 µM (inactive) | GI50 [54]: > 100 µM (inactive) | GI50 [55]: 77.1 µM (inactive) | GI50 [56]: 92.3 µM (inactive) | GI50 [57]: 71.8 µM (inactive) | GI50 [58]: > 100 µM (inactive) | GI50 [59]: > 100 µM (inactive)

C[Si](C)(C)/C(Br)=C\CCN1C(=O)CCC1=O
GI50 [1]: > 100 µM (inactive) | GI50 [2]: > 100 µM (inactive) | GI50 [3]: > 100 µM (inactive) | GI50 [4]: > 100 µM (inactive) | GI50 [5]: > 100 µM (inactive) | GI50 [6]: > 100 µM (inactive) | GI50 [7]: > 100 µM (inactive) | GI50 [8]: > 100 µM (inactive) | GI50 [9]: > 35.2 µM (inactive) | GI50 [10]: > 100 µM (inactive) | GI50 [11]: > 100 µM (inactive) | GI50 [12]: > 100 µM (inactive) | GI50 [13]: > 100 µM (inactive) | GI50 [14]: > 100 µM | GI50 [15]: > 100 µM (inactive) | GI50 [16]: > 100 µM (inactive) | GI50 [17]: > 100 µM (inactive) | GI50 [18]: > 100 µM (inactive) | GI50 [19]: > 100 µM (inactive) | GI50 [20]: > 100 µM (inactive) | GI50 [21]: > 100 µM (inactive) | GI50 [22]: > 100 µM (inactive) | GI50 [23]: > 100 µM (inactive) | GI50 [24]: > 100 µM (inactive) | GI50 [25]: > 100 µM (inactive) | GI50 [26]: > 100 µM (inactive) | GI50 [27]: > 100 µM (inactive) | GI50 [28]: > 100 µM (inactive) | GI50 [29]: > 100 µM (inactive) | GI50 [30]: > 100 µM (inactive) | GI50 [31]: > 100 µM (inactive) | GI50 [32]: > 100 µM (inactive) | GI50 [34]: > 100 µM (inactive) | GI50 [35]: > 100 µM (inactive) | GI50 [36]: > 100 µM (inactive) | GI50 [37]: > 100 µM (inactive) | GI50 [39]: > 100 µM (inactive) | GI50 [40]: > 100 µM (inactive) | GI50 [41]: > 100 µM (inactive) | GI50 [42]: > 100 µM (inactive) | GI50 [43]: > 100 µM (inactive) | GI50 [44]: > 100 µM (inactive) | GI50 [45]: > 100 µM (inactive) | GI50 [46]: > 100 µM (inactive) | GI50 [47]: > 100 µM (inactive) | GI50 [48]: > 100 µM (inactive) | GI50 [49]: > 100 µM (inactive) | GI50 [50]: > 100 µM (inactive) | GI50 [51]: > 100 µM (inactive) | GI50 [52]: > 100 µM (inactive) | GI50 [53]: > 100 µM (inactive) | GI50 [54]: > 100 µM (inactive) | GI50 [55]: > 100 µM (inactive) | GI50 [56]: > 100 µM (inactive) | GI50 [57]: > 100 µM (inactive) | GI50 [58]: > 100 µM (inactive) | GI50 [59]: > 100 µM (inactive)
